Laboratory results published in US20240287082A1, “NEW BENZODIAZEPINE DERIVATIVES AS GABA A GAMMA1 PAM” (Hoffmann-La Roche Inc., priority 2021, published 2024).
Read-outs that look alike come from different tables or passages of the source.

What was measured:
[1] = target: human GABAA α5β2γ1 receptor (Homo sapiens (Human), UniProt P31644+Q8N1C3); assay: Radioligand binding assay, competition for [3H]RO7239181, γ1-containing GABAA subtype α5β2γ1
Procedure: The affinity of compounds at GABAA γ1 subunit-containing receptors was measured by competition for [^3H]RO7239181 (67.3 Ci/mmol; Roche) binding to membranes from HEK293F cells (ThermoFisher R^79007) expressing human (transiently transfected) receptors of composition α5β2γ1, α2β2γ1, α1β2γ1. For better protein expression of the α2 subunit-containing receptors, the 28 amino acid long signal peptide (Met1 to Ala28)of the human GABAA α2 subunit was substituted by the 31 amino acid long signal peptide (Met1 to Ser31) of human GABAA α5 subunit.
Harvested pellets from HEK293F cells expressing the different GABAA receptor subtypes were resuspended in Mannitol Buffer pH 7.2-7.4 (Mannitol 0.29M, Triethylamine 10 mM, Acetic acid 10 mM, EDTA 1 mM plus protease inhibitors (20 tablets Complete, Roche Diagnostics Cat. No. 05 056 489 001 per liter)), washed two times and then resuspended at 1:10 to 1:15 dilution in the same buffer. Cell disruption was performed by stirring the suspension in a Parr vessel #4637 at 435 psi for 15 minutes, and then the suspensions were centrifuged at 1000×g for 15 minutes at 4° C. (Beckman Avanti J-HC: rotor JS-4.2). The supernatant (S1) was transferred in a 21 Schott flask and the pellet (P1) was resuspended with Mannitol Buffer up to 175 ml. The resuspended pellet was transferred into a 250 ml Corning centrifugal beaker and centrifuged at 1500×g for 10 minutes at 4° C. (Beckman Avanti J-HC: rotor JS-4.2). The supernatant (S1) was then transferred in the 21 Schott flask and the pellet was discarded. The supernatants (S1) were centrifuged in 500 ml Beckman polypropylene centrifugal beaker at 15 000×g for 30 minutes at 4° C. (Beckman Avanti J-20 XP: rotor JLA-10.500). The pellet (P2) was resuspended with Mannitol Buffer 1:1 and frozen at −80° C. The supernatant (S2) was centrifuged in 100 ml Beckman polypropylene centrifugal tubes at 48000×g for 50 minutes at 4° C. (Beckman Avanti J-20 XP: rotor JA-18). The supernatant (S3) was discarded and the pellet (P3) was resuspended with 1:1 Mannitol Buffer. The P2 and P3 protein concentration was determined with the BIORAD Standard assay method with bovine serum albumin as standard and measured on the NANO-Drop 1000. The membrane suspension was aliquots (500 μl per tube) and stored at −80° C. until required.
Membrane homogenates were resuspended and polytronised (Polytron PT1200E Kinematica AG) in Potassium Phosphate 10 mM, KCl 100 mM binding buffer at pH 7.4 to a final assay concentration determined with a previous experiment.
Radioligand binding assays were carried out in a volume of 200 μL (96-well plates) which contained 100 μL of cell membranes, [3H]RO7239181 at a concentration of 1.5 nM (α5β2γ1) or 20-30 nM (α1β2γ1, α2β2γ1) and the test compound in the range of [0.3-1000]×10^−9 M. Nonspecific binding was defined by 10×10^−6 (α5β2γ1) and 30×10^−6 M RO7239181 and typically represented less than 5% (α5β2γ1) and less than 20% (α1β2γ1, α2β2γ1) of the total binding. Assays were incubated to equilibrium for 1 hour at 4° C. and then, membranes were filtered onto unifilter (96-well white microplate with bonded GF/C filters preincubated 20-50 minutes in 0.3% Polyethylenimine) with a Filtermate 196 harvester (Packard BioScience) and washed 4 times with cold Potassium Phosphate 10 mM pH 7.4, KCl 100 mM binding buffer. After anhydrousing, filter-retained radioactivity was detected by liquid scintillation counting. Ki values were calculated using Excel-Fit (Microsoft) and are the means of two determinations.

h-GABA-A α2β2γ1 = h-GABA-A α2β2γ1 (Homo sapiens (Human), UniProt P47869+Q8N1C3); assay: Two-electrode voltage clamp electrophysiology in Xenopus oocytes expressing GABAA receptors, modulation of GABA EC20 current; assay type: cell-based; conditions: for Efficacy (GABA) %: % modulation of GABA EC20 = 100*(Fold increase−1), compound at 30-fold Ki α2β2γ1; for Fold increase h-GABA-A α2β2γ1 oocyte @ 30-fold Ki: Xenopus oocytes, GABA EC20, test compound at approx. 30-fold its Ki α2β2γ1
Procedure: Xenopus laevis oocytes at maturation stages V-VI were used for the expression of cloned mRNA encoding GABAA receptor subunits. Oocytes ready for RNA micro-injection were bought from Ecocyte, Castrop-Rauxel, Germany and stored in modified Barth's medium (composition in mM: NaCl 88, KCl 1, NaHCO3 2.4, HEPES 10, MgSO4 0.82, CaNO3 0.33, CaCl2 0.33, pH=7.5) at 20° C. until the experiment.
Oocytes were plated in 96-well plates for microinjection using the Roboinject automated instrument (MultiChannelSystems, Reutlingen, Germany). Approximately 50 nL of an aqueous solution containing the RNA transcripts for the subunits of the desired GABAA receptor subtype was injected into each oocyte. […] Oocytes were kept in modified Barth's medium (composition in mM: NaCl 88, KCl 1, NaHCO3 […], HEPES 10, MgSO4 0.82, CaNO3 0.33, CaCl2 0.33, pH=7.5) at 20° C. until the experiment.
Electrophysiological experiments were performed using the Roboocyte instrument (MultiChannelSystems, Reutlingen, Germany) on days 3 to 5 after the micro-injection of mRNA. During the experiment the oocytes were constantly superfused by a solution containing (in mM) NaCl 90, KCl 1, HEPES 5, MgCl2 1, CaCl2 1 (pH 7.4). Oocytes were impaled by two glass microelectrodes (resistance: 0.5-0.8 MΩ) which were filled with a solution containing KCl 1M+K-acetate 1.5 M and voltage-clamped to −80 mV. The recordings were performed at room temperature using the Roboocyte two-electrode voltage clamp system (Multichannelsystem). After an initial equilibration period of 1.5 min GABA was added for 1.5 min at a concentration evoking approximately 20% of a maximal current response (EC20). After another rest interval of 2.5 min GABA was again added evoking a response of similar amplitude and shape. […] Current traces were recorded at a digitization rate of 10 Hz during and shortly before and after the GABA application.
Each compound and concentration was tested on at least 3 oocytes. Different oocytes were used for different compound concentrations.
For the analysis, the digitized current traces of the first and second GABA response were superimposed and, if necessary, rescaled to equal maximal amplitudes. The ratio between the two responses during the time interval of test compound application was calculated point by point. The extremum of the resulting “ratio trace” was taken as the efficacy (“Fold increase”) of the compound expressed as “% modulation of GABA EC20” (100*(Fold increase−1)).

[2] = membranes of HEK293F cells, [3H]RO7239181 1.5 nM, mean of two determinations, read-out: Ki h-GABAA α5β2γ1

Row | Structure (SMILES) | Ki [1, 2] | Efficacy (GABA) % (h-GABA-A α2β2γ1) | Fold increase h-GABA-A α2β2γ1 oocyte @ 30-fold Ki (h-GABA-A α2β2γ1) | Ki [1]
1 | CNC(=O)c1cn2c(nc1=O)[C@H](C)N=C(c1c(F)cccc1F)c1c-2ccc(C(F)(F)F)c1Cl [Example 27, (5S)-8-chloro-7-(2,6-difluorophenyl)-N,5-dimethyl-3-oxo-9-(trifluoromethyl)-5H-pyrimido[1,2-a][1,4]benzodiazepine-2-carboxamide] | 6.2 nM | 113% | 2.13 | 
2 | Cc1cn2c(nc1=O)[C@H](C)N=C(c1c(F)cccc1F)c1c-2ccc(C(F)(F)F)c1Cl [Example 9, (5S)-8-chloro-7-(2,6-difluorophenyl)-2,5-dimethyl-9-(trifluoromethyl)-5H-pyrimido[1,2-a][1,4]benzodiazepin-3-one] |  | 99% | 1.99 | 3.1 nM
3 | C[C@@H]1N=C(c2c(F)cccc2F)c2c(ccc(C(F)(F)F)c2Cl)-n2cc(C(=O)NC3CC3)c(=O)nc21 [Example 28, (5S)-8-chloro-N-cyclopropyl-7-(2,6-difluorophenyl)-5-methyl-3-oxo-9-(trifluoromethyl)-5H-pyrimido[1,2-a][1,4]benzodiazepine-2-carboxamide] | 7.4 nM | 35% | 1.35 | 
4 | CCO/C=C/c1cn2c(nc1=O)[C@H](C)N=C(c1c(F)cccc1F)c1c-2ccc(C(F)(F)F)c1Cl [Example 18, (5S)-8-chloro-7-(2,6-difluorophenyl)-2-[(E)-2-ethoxyvinyl]-5-methyl-9-(trifluoromethyl)-5H-pyrimido[1,2-a][1,4]benzodiazepin-3-one] | 9.7 nM | 89% | 1.89 | 
5 | C[C@@H]1N=C(c2c(F)cccc2F)c2c(ccc(C(F)(F)F)c2Cl)-n2ccc(=O)nc21 [Example 10, (5S)-8-chloro-7-(2,6-difluorophenyl)-5-methyl-9-(trifluoromethyl)-5H-pyrimido[1,2-a][1,4]benzodiazepin-3-one] |  | 164% | 2.64 | 3 nM
6 | C[C@@H]1N=C(c2c(F)cccc2F)c2c(ccc(Br)c2Cl)-n2ccc(=O)nc21 [Example 13, (5S)-9-bromo-8-chloro-7-(2,6-difluorophenyl)-5-methyl-5H-pyrimido[1,2-a][1,4]benzodiazepin-3-one] |  | 70% | 1.7 | 1 nM
7 | CCOCCc1cn2c(nc1=O)CN=C(c1c(F)cccc1F)c1c-2ccc(Cl)c1Cl [Example 24, 8,9-dichloro-7-(2,6-difluorophenyl)-2-(2-ethoxyethyl)-5H-pyrimido[1,2-a][1,4]benzodiazepin-3-one] | 3 nM | 120% | 2.20 | 
8 | CCO/C=C/c1cn2c(nc1=O)CN=C(c1c(F)cccc1F)c1c-2ccc(C(F)(F)F)c1Cl [Example 25, 8-chloro-7-(2,6-difluorophenyl)-2-[(E)-2-ethoxyvinyl]-9-(trifluoromethyl)-5H-pyrimido[1,2-a][1,4]benzodiazepin-3-one] | 9.4 nM | 81% | 1.81 | 
9 | CCOCCc1cn2c(nc1=O)[C@H](C)N=C(c1c(F)cccc1F)c1c-2ccc(Cl)c1Cl [Example 21, (5S)-8,9-dichloro-7-(2,6-difluorophenyl)-2-(2-ethoxyethyl)-5-methyl-5H-pyrimido[1,2-a][1,4]benzodiazepin-3-one] | 3.4 nM | 113% | 2.13 | 
10 | CCc1cn2c(nc1=O)[C@H](C)N=C(c1c(F)cccc1F)c1c-2ccc(C(F)(F)F)c1Cl [Example 11, (5S)-8-chloro-7-(2,6-difluorophenyl)-2-ethyl-5-methyl-9-(trifluoromethyl)-5H-pyrimido[1,2-a][1,4]benzodiazepin-3-one] |  | 70% | 1.7 | 4.1 nM
11 | CCO/C=C/c1cn2c(nc1=O)CN=C(c1c(F)cccc1F)c1c-2ccc(Cl)c1Cl [Example 22, 8,9-dichloro-7-(2,6-difluorophenyl)-2-[(E)-2-ethoxyvinyl]-5H-pyrimido[1,2-a][1,4]benzodiazepin-3-one] | 2.1 nM | 113% | 2.13 | 
12 | CCO/C=C/c1cn2c(nc1=O)[C@H](C)N=C(c1c(F)cccc1F)c1c-2ccc(Cl)c1Cl [Example 19, (5S)-8,9-dichloro-7-(2,6-difluorophenyl)-2-[(E)-2-ethoxyvinyl]-5-methyl-5H-pyrimido[1,2-a][1,4]benzodiazepin-3-one] | 4.9 nM | 104% | 2.04 | 
13 | CCOCCc1cn2c(nc1=O)CN=C(c1c(F)cccc1F)c1c-2ccc(C(F)(F)F)c1Cl [Example 26, 8-chloro-7-(2,6-difluorophenyl)-2-(2-ethoxyethyl)-9-(trifluoromethyl)-5H-pyrimido[1,2-a][1,4]benzodiazepin-3-one] | 21.6 nM | 113% | 2.13 | 
14 | O=c1ccn2c(n1)CN=C(c1c(F)cccc1F)c1c-2ccc(Cl)c1Cl [Example 2, 8,9-dichloro-7-(2,6-difluorophenyl)-5H-pyrimido[1,2-a][1,4]benzodiazepin-3-one] |  | 88% | 1.88 | 1.1 nM
15 | C[C@@H]1N=C(c2c(F)cccc2F)c2c(ccc(Cl)c2Cl)-n2ccc(=O)nc21 [Example 4, (5S)-8,9-dichloro-7-(2,6-difluorophenyl)-5-methyl-5H-pyrimido[1,2-a][1,4]benzodiazepin-3-one] |  | 105% | 2.05 | 1.5 nM
